Values of other authors as cited in patent US6537525B1, “Medicated chewing-gum” (priority 1997, dated 2003).

What was measured:
[1] = antacid; versus magnesium trisilicate or magnesium carbonate
[2] = tested on: esophageal lesions associated with heartburn; settings: versus placebo or ranitidine

Row | Compound | potency relative to magnesium trisilicate or magnesium carbonate [1] [times] | effectiveness in the healing of esophageal lesions associated with heartburn [2]
1 | [O]=[Mg] [Magnesium oxide, magnesium oxide] | 8 to 10 | 
2 | NC(N)=Nc1nc(CSCCC(N)=NS(N)(=O)=O)cs1 [Famotidine] |  | significantly more effective than placebo or ranitidine
